# In publication PMC12560828, “Chemical structure drives developmental toxicity of alkyl-substituted naphthalenes in zebrafish” (Environment international, 2025):
# Tests used:
# [1] = tested on: early life stage zebrafish (Danio rerio) embryos; assay: Developmental toxicity morphology screen, sealed rotating vial exposure; assay type: in vivo; set-up: bmd, MO24 / bmd, MORT / bmd, ANY_ / bmd, AXIS / bmd, CRAN / bmd, EDEM / bmd, LTRK / bmd, MUSC / bmdL, ANY_ / bmdU, ANY_ / bmdL, AXIS / bmdU, AXIS / bmdL, CRAN / bmdU, CRAN / bmdL, EDEM / bmdU, EDEM / bmdL, LTRK / bmdU, LTRK / bmdL, MO24 / bmdU, MO24 / bmdL, MORT / bmdU, MORT: unit not given here; conditions: for BMC50 Any effect: Fig. 2 heatmap, exposure 6-24 hpf in vials, summary of all endpoints; for any effect BMD50: SI-T5; for estimated percent Any effect: at 20 μM, 120 hpf, estimated from fitted concentration-response curves
# Outline: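 Bleached 6 hpf embryos, eight per sealed glass vial in 2 mL EM, were dosed from a 200x DMSO stock and rotated end-over-end overnight at 28 °C, then moved to chemical-free EM at 24 hpf (32 embryos per treatment). Blinded binary scoring at 120 hpf was pooled as "Any effect". BMC50 is on nominal concentrations.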
# [2] = tested on: zebrafish embryos, gene expression at 48 hpf; assay: Targeted transcriptomics (TempO-Seq S1500+ zebrafish panel), differential expression; assay type: in vivo, Danio rerio; conditions: 20 μM
# Procedure: Targeted transcriptomics were performed using the Biospyder™ TempO-Seq™ 96-well plate platform. This platform used detector oligos for a gene set of 3112 probes selected through data driven approaches and expert curation ([Balik-Meisner et al., 2019]). The targeted transcriptomics approach was selected to maximize the number of chemicals that could be included in the analysis while managing cost and data analysis requirements. Targeted transcriptomics were limited to 96 samples, three chemicals without morphological effects were excluded from the analysis to ensure n = 4 per chemical and n = 6 controls, excluded chemicals are indicated in SI-T3.
# A single exposure concentration of 20 μM was chosen as the maximum possible concentration to elicit a biological response that also ensured enough viable animals for RNA collection for every chemical. The same concentration per chemical was chosen as opposed to a phenotypically anchored concentration due to variability in 48 hpf survival across chemicals at the same 120 hpf percent effect and to allow for a direct comparison of chemical potency and transcriptomic response. 48 hpf was chosen to ensure the measurement of transcriptomic responses prior to the emergence of observable phenotypic effects. This timepoint has been used extensively and enhanced the ability to compare our results across datasets. Exposure was conducted over two days, chemicals were split into day groups by numerical order of randomly generated internal labels, 11 chemicals and control each day, n = 48 embryos across six vials per treatment. Exposure was conducted as previously described in section 2.3. At 48 hpf embryos were collected for RNA extraction. Embryos from two exposure vials were kept for morphological effect assessments which were as expected based on screening results. From the remaining wells, six phenotypically normal embryos were collected and pooled in their vial groups into 1.5 mL Eppendorf tubes, placed on ice (~30 sec), excess medium was removed, placed back on ice (~30 sec), and 200 μL RNA shield was added. […] of n = 6 pooled embryos were collected from each treatment.
# RNA was extracted from exposure groups on day one and day two. 100 μL of lysis buffer was added to each tube containing pooled embryo samples and 200 μL of RNA shield, the full contents of the tube were then transferred to the homogenization plate (2 mL deep 96-well plate pre-filled with 400 μL 1 mm zirconium beads and 500 μL of lysis buffer). The plate was homogenized for 1.5 min using the Mini-BeadBeater 96 (BioSpec Products, Bartlesville, OK, United States) and centrifuged for five min at 3000 rcf. 550 μL of the supernatant was distributed over two plates, each pre-filled with 275 μL of ethanol. RNA extraction was performed using the KingFisher Apex System (ThermoFisher Scientific, Waltham, MA, United States) and Quick-RNA Magbead kit (Zymo Research Corporation, Irvine, CA, Untied States). Briefly, this automated process uses Mag beads to collect RNA from the sample, after a series of washes and treatment with DNase the RNA is eluted in 50 μL of ultra-pure water. RNA quality was assessed using the 4150 TapeStation System (Agilent, Santa Clara, CA, United States). All samples used had RNA integrity number (RIN) scores >9.8. RNA concentration was determined using Quant-iT RNA Reagent and assay kit and Varioskan ALF multi-mode plate reader (ThermoFisher Scientific, Waltham, MA, United States) in duplicate, samples with high variability (coefficient of variance (CV) > 10) between reads were repeated in triplicate. The average of the quantification reads was used for RNA concentration normalization. […] All 94 samples were normalized using ultra-pure water to the lowest concentration sample − 14.9 ng/μL. […]
# [3] = benchmark dose, morphology endpoint ANY_ (any effect)
# [4] = benchmark dose, morphology endpoint AXIS
# [5] = benchmark dose, morphology endpoint CRAN
structure (smiles),measurement,setting,value
"Cc1ccc2cccc(C)c2c1 [1,7-dimethylnaphthalene]",BMC50 AXIS (curved or bent body axis at 120 hpf),"[1]; Fig. 2, nominal concentration",23.9 µM
same,BMC50 LTRK (lower trunk and/or caudal fin at 120 hpf),"[1]; Fig. 2, nominal concentration",30 µM
same,BMC50 MORT (mortality at 120 hpf),"[1]; Fig. 2, nominal concentration",not associated with mortality
same,BMC50 MUSC (muscular/cardiovascular at 120 hpf),"[1]; Fig. 2, nominal concentration",45.7 µM
same,BMC50 Any effect,[1]; nominal concentration,20.1 µM
same,any effect BMD50,[1],20.09 µM
same,estimated percent Any effect,[1],52%
same,"bmd, ANY_",[1]; [3],20.0865
same,"bmd, AXIS",[1]; [4],23.9279
same,"bmd, LTRK","[1]; benchmark dose, morphology endpoint LTRK",29.9891
same,"bmd, MUSC","[1]; benchmark dose, morphology endpoint MUSC",45.7133
same,number of differentially expressed genes (DEGs),"[2]; p-value ≤ 0.05 and log2FC ≥ |1|, result in words",substantially more DEGs than the rest of the chemicals tested
same,nt5dc2 expression,[2]; result in words,decreased expression
same,logFC CCN1,[2]; vs global control (SI-T13),-1.157
same,logFC FGFBP2B,[2]; vs global control (SI-T13),-1.676
same,logFC MFAP2,[2]; vs global control (SI-T13),-0.751
same,logFC PDE6GB,[2]; vs global control (SI-T13),-0.7875
same,logFC PLOD1A,[2]; vs global control (SI-T13),-3.2359
"Cc1cccc2c(C)cccc12 [1,5-dimethylnaphthalene]",BMC50 AXIS (curved or bent body axis at 120 hpf),"[1]; Fig. 2, nominal concentration",47.6 µM
same,BMC50 CRAN (craniofacial malformation at 120 hpf),"[1]; Fig. 2, nominal concentration",48.3 µM
same,BMC50 EDEM (pericardial and/or yolk sac edema at 120 hpf),"[1]; Fig. 2, nominal concentration",47.8 µM
same,BMC50 MO24 (mortality at 24 hpf),"[1]; Fig. 2, nominal concentration",no MO24 BMC50
same,BMC50 Any effect,[1]; nominal concentration,36.9 µM
same,any effect BMD50,[1],36.95 µM
same,estimated percent Any effect,[1],13%
same,"bmd, ANY_",[1]; [3],36.9476
same,"bmd, AXIS",[1]; [4],47.5678
same,"bmd, CRAN",[1]; [5],48.2521
same,"bmd, EDEM","[1]; benchmark dose, morphology endpoint EDEM",47.802
"Cc1ccc2ccc(C)cc2c1 [2,7-dimethylnaphthalene]",estimated percent Any effect,[1],12%
same,nt5dc2 expression,[2]; result in words,decreased expression
CCc1ccc2ccccc2c1 [2-ethylnaphthalene],BMC50 AXIS (curved or bent body axis at 120 hpf),"[1]; Fig. 2, nominal concentration",44.9 µM
same,BMC50 CRAN (craniofacial malformation at 120 hpf),"[1]; Fig. 2, nominal concentration",45.7 µM
same,BMC50 EDEM (pericardial and/or yolk sac edema at 120 hpf),"[1]; Fig. 2, nominal concentration",42.3 µM
same,BMC50 LTRK (lower trunk and/or caudal fin at 120 hpf),"[1]; Fig. 2, nominal concentration",49.8 µM
same,BMC50 MO24 (mortality at 24 hpf),"[1]; Fig. 2, nominal concentration",47.1 µM
same,BMC50 MORT (mortality at 120 hpf),"[1]; Fig. 2, nominal concentration",44.6 µM
same,BMC50 Any effect,[1]; nominal concentration,35.2 µM
same,any effect BMD50,[1],35.16 µM
same,"bmd, MO24","[1]; endpoint MO24, benchmark dose",47.121
same,"bmdL, MO24","[1]; endpoint MO24, lower limit of benchmark dose",45.5775
same,"bmdU, MO24","[1]; endpoint MO24, upper limit of benchmark dose",48.8332
same,"bmd, MORT","[1]; endpoint MORT, benchmark dose",44.5979
same,"bmdL, MORT","[1]; endpoint MORT, lower limit of benchmark dose",42.8494
same,"bmdU, MORT","[1]; endpoint MORT, upper limit of benchmark dose",46.3328
same,"bmd, ANY_","[1]; morphology endpoint ANY_, benchmark dose",35.1578
same,"bmdL, ANY_","[1]; morphology endpoint ANY_, lower limit of benchmark dose",33.394
same,"bmdU, ANY_","[1]; morphology endpoint ANY_, upper limit of benchmark dose",36.9258
same,"bmd, AXIS","[1]; morphology endpoint AXIS, benchmark dose",44.9036
same,"bmdL, AXIS","[1]; morphology endpoint AXIS, lower limit of benchmark dose",41.901
same,"bmdU, AXIS","[1]; morphology endpoint AXIS, upper limit of benchmark dose",49.465
same,"bmd, CRAN","[1]; morphology endpoint CRAN, benchmark dose",45.7058
same,"bmdL, CRAN","[1]; morphology endpoint CRAN, lower limit of benchmark dose",42.7078
same,"bmdU, CRAN","[1]; morphology endpoint CRAN, upper limit of benchmark dose",50.351
same,"bmd, EDEM","[1]; morphology endpoint EDEM, benchmark dose",42.2958
same,"bmdL, EDEM","[1]; morphology endpoint EDEM, lower limit of benchmark dose",39.552
same,"bmdU, EDEM","[1]; morphology endpoint EDEM, upper limit of benchmark dose",46.0615
same,"bmd, LTRK","[1]; morphology endpoint LTRK, benchmark dose",49.8262
same,"bmdL, LTRK","[1]; morphology endpoint LTRK, lower limit of benchmark dose",46.6984
same,"bmdU, LTRK","[1]; morphology endpoint LTRK, upper limit of benchmark dose",55.8128
same,nt5dc2 expression,[2]; result in words,decreased expression
"Cc1cc(C)c2c(C)cccc2c1 [2,4,5-trimethylnaphthalene]",BMC50 AXIS (curved or bent body axis at 120 hpf),"[1]; Fig. 2, nominal concentration",24.2 µM
same,BMC50 CRAN (craniofacial malformation at 120 hpf),"[1]; Fig. 2, nominal concentration",24.8 µM
same,BMC50 MO24 (mortality at 24 hpf),"[1]; Fig. 2, nominal concentration",25.7 µM
same,BMC50 MORT (mortality at 120 hpf),"[1]; Fig. 2, nominal concentration",24.2 µM
same,BMC50 Any effect,[1]; nominal concentration,22 µM
same,any effect BMD50,[1],22.04 µM
same,"bmd, MO24","[1]; benchmark dose, endpoint MO24",25.7458
same,"bmd, MORT","[1]; benchmark dose, endpoint MORT",24.2071
same,"bmd, ANY_",[1]; [3],22.0373
same,"bmd, AXIS",[1]; [4],24.1954
same,"bmd, CRAN",[1]; [5],24.8219
